Data as given in patent publication US5436273A, “Psychoactive propargylamine derivatives used in the treatment of anxiety, psychotic states or aggression” (Lowchol Scientific, Inc., priority 1993, dated 1995).
Where two headings read alike, the source gives them in different places.

Tests used:
[1] = system: righting reflex / ethanol narcosis in mice; assay: Potentiation of sleeping time induced by ethanol in mice; assay type: in vivo, CD #1 mice
Method: 7. Potentiation of Sleeping Time Induced by Ethanol in Mice
This test was done with male CD #1 mice of 25-35 g. The mice are injected intraperitoneally (8 mice per dose). A subhypnotic dose of ethanol (12 ml/kg of 50% ethanol solution) is administered orally 30 minutes later.
The loss of the righting reflex is evaluated, for each animal, 30 minutes after the administration of the alcohol. It is considered that there is a potentialization of ethanol narcosis if the righting time exceeded 30 seconds.
The results which are reported in Table 7 are expressed in terms of the percentage of animals displaying a loss of the righting reflex versus the administered dose. Chlorpromazine (5 mg/kg i.p.) is used as a standard.

[2] = Rotarod neurotoxicity test in mice; conditions: mouse; for TD50 at 0.5 h: in vivo, ip
Acute toxicity test = conditions: mouse, in vivo
Method: CD #1 mice (20-30 g) are used for this test. The animals are individualy housed in glass beakers for a 2 hour period of acclimatization without food and water.

[3] = system: spontaneous motor activity in mice; assay: Inhibition of spontaneous motor activity in mice; assay type: in vivo, CD #1 mice; conditions: for ED50: Mus musculus, ip, 0.5 h
Method: 4. Inhibition of Spontaneous Motor Activity in Mice
Female CD #1 mice (20-30 g) are used for this experiment. The effect of the compound to be studied on spontaneous activity was evaluated by an automated […] XYZ system. This system allows the simultaneous quantification of the following parameters:
number of stereotypic movements;
number of vertical movements;
number of clockwise revolutions; and
number of counterclockwise revolutions.
(§1) Two animals are studied simultaneously, one treated and one control. After a 2 hour period of acclimatization to the room, a first activity count of 10 minutes duration is perfomed. The compound to be studied is then administered i.p. and the spontaneous activity is reevaluated 30 minutes later over a period of 10 minutes.

[4] = system: conditioned avoidance response in rats; assay: Inhibition of conditioned avoidance response in rats; assay type: in vivo, Sprague Dawley rats
Excerpt: 6. Inhibition of Conditioned Avoidance Response in Rats
Male Sprague Dawley rats (200-250 g) are trained to avoid an electric foot shock, by continuously changing room with the appropriate visuals and auditory signals, in an automatic 2-way conditioned avoidance apparatus (Coulbourn Instrument Co.). Only the animals that perform at least a 70% avoidance (3 successive training sessions) are kept for the experiment.
The day of the experiment, the selected animals are submitted to a pre-treatment control session. The compound to be studied is then administered i.p. and the animals are placed back in the apparatus for evaluation 30 minutes later. Diazepam was used as a standard.

[5] = system: exploratory behavior in rats; assay: Inhibition of exploratory behavior in rats (hole poking); assay type: in vivo, Sprague-Dawley rats; conditions: for ED50: Rattus norvegicus, ip, 0.5 h, read-out: dose required to diminish by 50% the exploratory behavior
Method: 8. Inhibition of Exploratory Behavior in Rats (Hole Poking).
This test is done with Sprague-Dawley male rats of about 300 g. Activity is evaluated with a […] XYZ activity cage connected to a […] […] DCM-4. A perforated plate (16 holes of 2-5 cm diameter) is placed in the enclosure and on the activity case to register vertical activity. The number of times the rat placed his snout into the holes during a 10 minute period is recorded. The test was started 30 minutes after the interperitoneal injection of the compound to be studied.
The results which are reported in Table 8 are expressed in terms of the dose required to diminish by 50% the exploratory behavior, with reference to animals injected with the carrier only. Diazepam and buspirone are used as standards.

[6] = Effect on body temperature, buspirone in rats; assay type: in vivo, Sprague Dawley rats
Method: Female CD #1 mice (20-30 g) are used. Rectal temperature is recorded before and one hour after s.c. administration of the compound to be studied (N=8/doses×4 doses). The solvent used is sterile water for intravenous injection.
The results which are reported in Table 9 are expressed in terms of the variation of temperature for different doses. Buspirone was tested on Sprague Dawley rats.

[7] = system: spontaneous motor activity in rats; assay: Inhibition of spontaneous motor activity in rats; assay type: in vivo, Sprague Dawley rats; conditions: for ED50: Rattus norvegicus, ip, 0.5 h, i.p., 30 minutes
Method: as §1
5. Inhibition of Spontaneous Motor Activity in Rats
The method is the same as described above for mice, except that because of the size of the animals (Sprague Dawley rats; 300 g), the test and control animals are not evaluated simultaneously, but alternatively.

[8] = system: isolation induced aggressive behavior in mice; assay: Inhibition of isolation induced fighting behavior in mice; assay type: in vivo, CD #1 mice; conditions: for ED50: Mus musculus, ip, 0.5 h, read-out: ED50 (dose that suppressed aggressive behavior in 50% of the animals); for inhibition of aggressive behavior (in words): mice
Method: 1. Inhibition of Isolation Induced Fighting Behavior in Mice
After this period of confinement, the animals usually develop a marked intraspecific aggressive behavior when they are placed in the same cage.
The compound to be studied is administered i.p. to the selected groups (N=8 pairs/dose×5 doses) and the aggressive behavior is tested again 30 minutes later. […] A one week washout period is allowed between treatments.

in vivo = conditions: mouse, ip
[9] = i.p., 30 minutes after administration, probit analysis

O=C1CC2(CCCC2)CC(=O)N1CCCCN1CCN(c2ncccn2)CC1 [Buspirone, reference compound]
potentiation of ethanol (in words) ([1]; subhypnotic dose of ethanol, mice): more effective than compound N^o 3
TD50 ([2]; rotarod, po): 135 mg/kg
LD50 (Acute toxicity test; po, read-out: LD50): 622 mg/kg
inhibition of spontaneous motor activity (in words) [3]: inhibit spontaneous motor activity in mice and rats
ED50 ([3]; i.p., 30 minutes, read-out: ED50, clockwise revolutions): 17.9 ± 6.9 mg/kg
ED50 ([3]; i.p., 30 minutes, read-out: ED50, horizontal activity): 20.5 ± 16.7 mg/kg
ED50 ([3]; i.p., 30 minutes, read-out: ED50, movement time): 19.9 ± 8.9 mg/kg
ED50 ([3]; i.p., 30 minutes, read-out: ED50, stereotypy time): 22.7 ± 13.7 mg/kg
ED50 ([3]; i.p., 30 minutes, read-out: ED50, total distance): 22.6 ± 15.8 mg/kg
ED50, counterclockwise revolutions ([3]; i.p., 30 minutes): no dose-response
ED50, number of movements ([3]; i.p., 30 minutes): no dose-response
ED50, number of stereotypic movements ([3]; i.p., 30 minutes): no dose-response
ED50, vertical activity ([3]; i.p., 30 minutes): no dose-response
ED50, vertical movements ([3]; i.p., 30 minutes): no dose-response
ED50, vertical time ([3]; i.p., 30 minutes): no dose-response
inhibition of conditioned avoidance response (in words) ([4]; rats): inhibit conditioned avoidance in rats, but are less active than diazepam
ED50 ([5]; i.p., 30 minutes, rats): 2.8 ± 0.6 mg/kg
inhibition of exploratory behavior (in words) ([5]; rats): more potent, in this respect, than diazepam but they rapidly lose their ability to produce this effect after the first administration
Temp. Difference from Control ([6]; dose 10, Sprague Dawley rats): -2.7
Temp. Difference from Control ([6]; dose 30, Sprague Dawley rats): -3.6
Temp. Difference from Control ([6]; dose 100, Sprague Dawley rats): -5.8
inhibition of spontaneous motor activity (in words) [7]: inhibit spontaneous motor activity in mice and rats
ED50 ([7]; read-out: ED50, clockwise revolutions): 2.3 ± 0.9 mg/kg
ED50 ([7]; read-out: ED50, counterclockwise revolutions): 2.9 ± 0.7 mg/kg
ED50 ([7]; read-out: ED50, horizontal activity): 2.7 ± 0.8 mg/kg
ED50 ([7]; read-out: ED50, movement time): 3.2 ± 0.6 mg/kg
ED50 ([7]; read-out: ED50, number of movements): 5.3 ± 0.9 mg/kg
ED50 ([7]; read-out: ED50, number of stereotypic movements): 3.1 ± 0.8 mg/kg
ED50 ([7]; read-out: ED50, stereotypy time): 1.7 ± 0.6 mg/kg
ED50 ([7]; read-out: ED50, total distance): 2.8 ± 0.7 mg/kg

CN(C)CCCN1c2ccccc2Sc2ccc(Cl)cc21 [Chlorpromazine, reference compound]
percentage of animals displaying a loss of the righting reflex ([1]; 5 mg/kg i.p., with ethanol): 100%

CC(N)C#Cc1ccc(Cl)cc1 (centres unmarked) [Compound 1, 2-Amino-4-(p-chlorophenyl)-3-butyne]
LD50 (Acute toxicity test; ip, probit analysis): 130 mg/kg
ED50 [8, 9]: 12 mg/kg
inhibition of aggressive behavior (in words) ([8]; i.p.): particularly potent inhibitors
TD50 at 0.5 h (in vivo): ~65 mg/kg

CC(N)C#Cc1ccc(C#N)cc1 (centres unmarked) [Compound 2, 2-Amino-4-(p-cyanophenyl)-3-butyne]
LD50 (Acute toxicity test; ip, probit analysis): > 100 mg/kg
ED50 [8, 9]: 8 mg/kg
inhibition of aggressive behavior (in words) ([8]; i.p.): particularly potent inhibitors
TD50 at 0.5 h (in vivo): > 100 mg/kg

CN(CC#Cc1cccc(C(F)(F)F)c1)Cc1ccccc1 [Compound 5]
LD50 (Acute toxicity test; ip): 416 mg/kg
ED50 [8, 9]: 28 mg/kg
TD50 at 0.5 h (in vivo): 334 mg/kg

CC(C#Cc1cccc(C(F)(F)F)c1)N(C)C (centres unmarked) [Compound 7]
LD50 (Acute toxicity test; ip): 220 mg/kg
ED50 [8, 9]: 38 mg/kg
TD50 at 0.5 h (in vivo): 153 mg/kg

FC(F)(F)c1cccc(C#CCNCCc2ccccc2)c1 [Compound 9]
LD50 (Acute toxicity test; ip): 252 mg/kg
ED50 [8, 9]: 58 mg/kg
TD50 at 0.5 h (in vivo): 126 mg/kg

C(#Cc1ccccc1)CN1CCCCC1 [Compound 11]
LD50 (Acute toxicity test; ip): 188 mg/kg
ED50 [8, 9]: 27 mg/kg
TD50 at 0.5 h (in vivo): 132 mg/kg

CC(C)NC(C)C#Cc1ccccc1 (centres unmarked) [Compound 13]
LD50 (Acute toxicity test; ip, probit analysis): 120 mg/kg
ED50 [8, 9]: 27 mg/kg

FC(F)(F)c1cccc(C#CCNc2ccco2)c1 [Compound 15]
LD50 (Acute toxicity test; ip): 351 mg/kg
ED50 [8, 9]: 19 mg/kg
TD50 at 0.5 h (in vivo): 193 mg/kg

CC(C#Cc1ccccc1)NCc1ccccc1 (centres unmarked) [Compound 16]
LD50 (Acute toxicity test; ip): 309 mg/kg
ED50 [8, 9]: 101 mg/kg
TD50 at 0.5 h (in vivo): 170 mg/kg

CC(C#Cc1cccc(C(F)(F)F)c1)NCc1ccccc1 (centres unmarked) [Compound 17]
LD50 (Acute toxicity test; ip): 366 mg/kg
ED50 [8, 9]: 50 mg/kg
TD50 at 0.5 h (in vivo): 123 mg/kg

CC(C#Cc1ccccc1)Nc1ccco1 (centres unmarked) [Compound 18]
LD50 (Acute toxicity test; ip, probit analysis): ~300 mg/kg
ED50 [8, 9]: 64 mg/kg

CC(C#Cc1cccc(C(F)(F)F)c1)Nc1ccco1 (centres unmarked) [Compound 19]
ED50 [8, 9]: 73 mg/kg

CC(N)C#Cc1ccc([N+](=O)[O-])cc1 (centres unmarked) [Compound 20]
LD50 (Acute toxicity test; ip): 152 mg/kg
ED50 [8, 9]: 10 mg/kg
TD50 at 0.5 h (in vivo): ~120 mg/kg

CC(N)C#Cc1ccc(C(=O)N(C)C)cc1 (centres unmarked) [Compound 21]
LD50 (Acute toxicity test; ip, probit analysis): < 100 mg/kg

CC(N)C#Cc1ccc(C(N)=O)cc1 (centres unmarked) [Compound 22]
LD50 (Acute toxicity test; ip, probit analysis): > 100 mg/kg

COc1ccc(C#CC(C)N)cc1 (centres unmarked) [Compound 23]
LD50 (Acute toxicity test; ip, probit analysis): > 100 mg/kg
ED50 [8, 9]: 24 mg/kg

CC(N)C#Cc1cccc(Cl)c1 (centres unmarked) [Compound 24]
LD50 (Acute toxicity test; ip): > 100 mg/kg
TD50 at 0.5 h (in vivo): 50 mg/kg

CCC(N)C#Cc1ccccc1 (centres unmarked) [Compound 25]
LD50 (Acute toxicity test; ip): 84 mg/kg
ED50 [8, 9]: 16 mg/kg
TD50 at 0.5 h (in vivo): ≥ 84 mg/kg

NCC#Cc1ccccc1 [Compound 26]
LD50 (Acute toxicity test; ip, probit analysis): ≥ 100 mg/kg

CCNCC#Cc1ccccc1 [Compound 27]
LD50 (Acute toxicity test; ip): 98 mg/kg
ED50 [8, 9]: 17 mg/kg
TD50 at 0.5 h (in vivo): 88 mg/kg

CC(N)C#Cc1ccccc1 (centres unmarked) [Compound 30]
LD50 (Acute toxicity test; ip): 66 mg/kg
ED50 [8, 9]: 15 mg/kg
TD50 at 0.5 h (in vivo): ~50 mg/kg

CNC(C)C#Cc1ccccc1 (centres unmarked) [Compound 31]
TD50 at 0.5 h [2]: ≥ 95 mg/kg
LD50 (Acute toxicity test; ip, probit analysis): 95 mg/kg
ED50 [8]: 12 mg/kg

CCNC(C)C#Cc1ccccc1 (centres unmarked) [Compound 32]
TD50 at 0.5 h [2]: ≥ 120 mg/kg
LD50 (Acute toxicity test; ip, probit analysis): 120 mg/kg
ED50 [8]: 23 mg/kg

CCN(CC)C(C)C#Cc1ccccc1 (centres unmarked) [Compound 33]
LD50 (Acute toxicity test; ip): 88 mg/kg
ED50 [8, 9]: 44 mg/kg
TD50 at 0.5 h (in vivo): ≥ 88 mg/kg

C#CC(C)NC (centres unmarked) [Compound 34]
LD50 (Acute toxicity test; ip, probit analysis): 828 mg/kg
ED50 [8, 9]: 26 mg/kg

C#CC(C)N(C)C (centres unmarked) [Compound 35]
ED50 [8, 9]: 92 mg/kg

C#CC(C)(C)N [Compound 36]
LD50 (Acute toxicity test; ip): 779 mg/kg
ED50 [8, 9]: 176 mg/kg
TD50 at 0.5 h (in vivo): 391 mg/kg

CN1C(=O)CN=C(c2ccccc2)c2cc(Cl)ccc21 [Diazepam]
conditioned avoidance response ([4]; 5 mg/kg i.p.): 57.5%
ED50 [5]: 14.2 ± 5 mg/kg
